Experimental data as given in patent US20080234317A1, “METHODS FOR THE IMPROVEMENT OF MEMORY AND NEUROLOGICAL FUNCTION COMPRISING THE ADMINISTRATION OF COMPOSITIONS THAT ACT AS INHIBITORS OF THE SODIUM PROTON (NA+ /H+ ) EXCHANGER, SUBTYPE 5 (NHE-5)” (SANOFI-AVENTIS, priority 2005, published 2008).
Where a name gives a salt, the structure may show the parent alone.

Columns and labels:
[1] = test system: LTP in the CA 1 region of the hippocampus section; assay: early LTP after weak tetanus in hippocampus sections, CA 1 region (fEPSP slope); assay type: cell-based, Wistar rats; conditions: 10 μM
NHE-5 = target: T1, NHE-5 (Homo sapiens, UniProt Q14940); assay: recovery of intracellular pH in LAP1 cells stably expressing NHE subtypes after acidification (BCECF, FLIPR); assay type: cell-based; conditions: LAP1 cells expressing NHE-5; pH recovery registered for two minutes
T1 construct: expressed in transfected cells
T1 sequence (Q14940 1-896): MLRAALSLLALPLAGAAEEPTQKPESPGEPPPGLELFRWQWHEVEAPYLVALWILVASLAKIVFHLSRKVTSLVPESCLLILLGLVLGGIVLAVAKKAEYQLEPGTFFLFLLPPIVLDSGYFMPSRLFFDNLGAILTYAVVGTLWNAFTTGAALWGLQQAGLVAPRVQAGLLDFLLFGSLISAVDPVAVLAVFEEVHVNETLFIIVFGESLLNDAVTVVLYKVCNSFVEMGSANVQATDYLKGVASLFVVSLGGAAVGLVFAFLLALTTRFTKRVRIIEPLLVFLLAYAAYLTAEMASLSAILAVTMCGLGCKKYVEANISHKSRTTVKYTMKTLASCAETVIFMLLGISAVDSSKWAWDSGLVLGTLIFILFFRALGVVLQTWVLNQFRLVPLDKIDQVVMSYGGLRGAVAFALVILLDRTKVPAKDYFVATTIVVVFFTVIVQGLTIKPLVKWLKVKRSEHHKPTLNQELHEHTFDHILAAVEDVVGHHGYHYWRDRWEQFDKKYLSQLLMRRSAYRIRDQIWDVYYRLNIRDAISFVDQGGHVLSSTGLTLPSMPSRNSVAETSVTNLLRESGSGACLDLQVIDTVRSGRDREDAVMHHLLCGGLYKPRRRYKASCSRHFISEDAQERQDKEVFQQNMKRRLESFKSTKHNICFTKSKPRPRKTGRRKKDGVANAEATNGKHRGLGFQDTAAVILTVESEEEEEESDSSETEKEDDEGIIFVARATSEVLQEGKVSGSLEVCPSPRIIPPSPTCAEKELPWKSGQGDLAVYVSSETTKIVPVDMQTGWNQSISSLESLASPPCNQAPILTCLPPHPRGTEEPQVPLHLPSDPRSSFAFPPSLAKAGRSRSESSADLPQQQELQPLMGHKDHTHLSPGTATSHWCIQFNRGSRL
Description: In order to obtain pharmacological data for NHE-5 inhibition, the recovery in the intracellular pH (pHi) of LAP1 cells, which stably express the different subtypes of the sodium-proton exchanger (NHE), was determined after an acidification. This recovery occurs even under bicarbonate-free conditions in the case of functioning NHE. To this end, the pHi was determined with the pH-sensitive fluorescent dye BCECF (Molecular Probes, Eugene, Oreg., USA; the precursor BCECF-AM is used). […] The pH recovery was started by the addition of 90 μl of Na^+-containing buffer (133.8 mM NaCl, 4.7 mM KCl, 1.25 mM CaCl2, 1.25 mM MgCl2, 0.97 mM Na2HPO4, 0.23 mM NaH2PO4, 10 mM Hepes, 5 mM glucose; a pH of 7.4 is established with 1 M NaOH) in the analytical instrument (FLIPR, “Fluorometric Imaging Plate Reader”, Molecular Devices, Sunnyvale, Calif., USA). The BCECF fluorescence was determined at an excitation wavelength of 498 nm and the FLIPR emission filter 1 (band gap from 510 to 570 nm). The subsequent changes in fluorescence were registered for two minutes at NHE-5 as a measure of the pH recovery. […] From the percentages of the pH recovery, the IC50 value of the particular substance for the individual NHE subtypes was calculated by means of the program XLFit (idbs, Surrey, UK).

## CN1Cc2c(Cl)cc(Cl)cc2C(c2ccc(S(=O)(=O)N=C(N)N)cc2)C1 (centres unmarked) (as salt: hydrochloride) [Example 1, N-Diaminomethylene-4-(6,8-dichloro-2-methyl-1,2,3,4-tetrahydroisoquinolin-4-yl)benzenesulfonamide, dihydrochloride]
other
  melting point: 140 °C (dec.)

## CN1Cc2c(Cl)cc(Cl)cc2C(c2ccc(S(=O)(=O)N=C(N)N)cc2)C1 (centres unmarked) [Example 1, N-Diaminomethylene-4-(6,8-dichloro-2-methyl-1,2,3,4-tetrahydroisoquinolin-4-yl)benzenesulfonamide, dihydrochloride]
[1]; flushed 20 min before stimulation, washed out 20 min after, 80 min after the stimulus, control 113%
  potentiation of the EPSP, % of the baseline: under 137 % of the baseline
[1]; baseline recording before tetanus, rat hippocampus sections
  intrinsic effect on synaptic transmission: no intrinsic effect on synaptic transmission
[1]; weak tetanus, rat hippocampus sections
  maintenance of the weak LTP: improve maintenance of the weak LTP
NHE-5
  IC50: 370 nM
